Measured values: patent US11286268B1, “EIF4E-inhibiting compounds and methods” (EFFECTOR THERAPEUTICS, INC., priority 2019, dated 2022)
Where two headings read alike, the source gives them in different places.

Target: recombinant eIF4E (Homo sapiens (Human), UniProt P06730)
Assay: Fluorescence polarization competition assay for eIF4E binding potency
Outline: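 Protein and fluorescent cap-analog probe (EDA-m7GDP-ATTO-550) were mixed first for 5 min, after which serially diluted compound was added to final 75 nM eIF4E, 20 nM probe, 1% DMSO. Reactions equilibrated 30 min at room temperature before polarization was measured.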

[1] = fluorescence polarization competition, 75 nM recombinant eIF4E, 20 nM EDA-m7GDP-ATTO-550, IC50 class, read-out: elF4E FP
[2] = inhibition of eIF4E/EDA-m7GDP-ATTO-550 binding by 50%, Table 4B calculated values, read-out: IC50
[3] = inhibition of eIF4E/EDA-m7GDP-ATTO-550 binding, calculated IC50 values, Table 4B, read-out: IC50

Chain of recombinant eIF4E (P06730 whole entry): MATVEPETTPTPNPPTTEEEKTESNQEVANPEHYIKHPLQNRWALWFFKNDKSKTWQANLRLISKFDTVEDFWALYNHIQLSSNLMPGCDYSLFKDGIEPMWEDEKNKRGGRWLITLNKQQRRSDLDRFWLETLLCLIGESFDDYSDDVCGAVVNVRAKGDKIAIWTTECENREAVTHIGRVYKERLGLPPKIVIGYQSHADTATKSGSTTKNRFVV

Structure (SMILES)	IC50 [1]	IC50 [2]	IC50 [3]
COc1ccc(-c2c(Cl)cc3nc(C)n(CCOc4ccc(Cl)cc4-c4cc(C)nc5c(C(=O)O)csc45)c(=O)c3c2C#N)cn1 [compound 1061]	< 0.05 µM	0.00854 µM	–
Cc1ncc(F)cc1-c1c(C(F)(F)F)cc2nc(C)n(CCOc3ccc(Cl)cc3-c3ccnc4c(C(=O)O)csc34)c(=O)c2c1C#N [compound 847]	< 0.05 µM	0.044 µM	–
Cc1cc(-c2cc(Cl)ccc2OCCn2c(C)nc3cc(F)c(C4=CCCC4)c(C#N)c3c2=O)c2scc(C(=O)O)c2n1 [compound 805]	< 0.05 µM	0.0136 µM	–
Cc1nc2cnc(N3CC4(CN(CCOC(F)(F)F)C4)C3)c(C#N)c2c(=O)n1CC#Cc1ccc(Cl)cc1-c1ccnc2c(C(=O)O)csc12 [compound 894]	< 0.05 µM	0.0216 µM	–
O=C(O)c1cc(-c2cc(Cl)ccc2OCCn2nnc3ccccc3c2=O)ccn1 [compound 2014]	–	–	12.2 µM
Cc1nc2cc(C(F)(F)F)cc(C#N)c2c(=O)n1CCOc1ccc(Cl)cc1-c1ccnc(C(=O)NS(C)(=O)=O)c1 [compound 1372]	–	–	0.0807 µM
CCc1cc(-c2c(C(F)(F)F)cc3nc(C)n(CCOc4ccc(Cl)cc4-c4cc(C)nc5c(C(=O)O)csc45)c(=O)c3c2C#N)ccn1 [compound 468]	< 0.05 µM	0.00436 µM	–
Cc1cc(-c2cc(Cl)ccc2OCCn2c(C)nc3cc(C(F)(F)F)c(-c4cnc(C(F)F)cn4)c(C#N)c3c2=O)c2scc(C(=O)O)c2n1 [compound 1025]	< 0.05 µM	0.03 µM	–
Cc1nc2c(F)cc(CN(C)C)c(C#N)c2c(=O)n1CCOc1ccc(Cl)cc1-c1ccnc2c(C(=O)O)csc12 [compound 508]	< 0.05 µM	0.0152 µM	–
Cc1nc2cnc(N(C)C3CCOCC3)c(C#N)c2c(=O)n1CC#Cc1ccc(Cl)cc1-c1ccnc2c(C(=O)O)csc12 [compound 1528]	–	–	0.00631 µM
Cc1cc(-c2cc(Cl)ccc2OCCn2c(C)nc3cc(C(F)(F)F)c(-c4cc(C)n(C)n4)c(C#N)c3c2=O)c2scc(C(=O)O)c2n1 [compound 1029]	< 0.05 µM	0.00766 µM	–
CCN(c1ncc2nc(C)n(CC#Cc3ccc(Cl)cc3-c3ccnc4c(C(=O)NS(=O)(=O)c5cccnc5)csc34)c(=O)c2c1C#N)C1CCN([C@H]2C[C@H](OC(F)F)C2)CC1 [compound 1770]	–	–	0.0175 µM
Cc1nc2cnc(C3CCCN(CC(F)F)C3)c(C#N)c2c(=O)n1CCCc1ccc(Cl)cc1-c1ccnc2c(C(=O)O)csc12 (stereo not drawn) [compound 1571]	–	–	0.0205 µM
CCN(c1ncc2nc(C)n(CC#Cc3ccc(Cl)cc3-c3ccnc4c(C(=O)NS(=O)(=O)CC#N)csc34)c(=O)c2c1C#N)C1CCN(C2COC2)CC1 [compound 1735]	–	–	0.0336 µM
Cc1nc2cc(C(F)(F)F)c(CN3CCN(C)CC3)c(C#N)c2c(=O)n1CCOc1ccc(Cl)cc1-c1cc(CCF)nc2c(C(=O)O)csc12 [compound 644]	< 0.05 µM	0.00497 µM	–
Cc1cc(-c2cc(Cl)ccc2OCCn2c(C)nc3cc(C(F)(F)F)c(N4CCN(CC(F)F)CC4)c(C#N)c3c2=O)c2scc(C(=O)O)c2n1 [compound 428]	< 0.05 µM	0.00745 µM	–
Cc1cc(-c2cc(Cl)ccc2OCCn2c(C)nc3cc(C(F)(F)F)c(OC4CC4)c(C#N)c3c2=O)c2scc(C(=O)O)c2n1 [compound 1034]	< 0.05 µM	0.0379 µM	–
Cc1nc2cnc(N(C)[C@H]3CC[C@@H](N(C)CC(F)F)CC3)c(C#N)c2c(=O)n1CC#Cc1ccc(Cl)cc1-c1ccnc2c(C(=O)O)csc12 [compound 1896]	–	–	0.0122 µM
Cc1nc2cnc(N(C)[C@@H]3[C@@H]4C[C@H]3CN(CC(C)(F)F)C4)c(C#N)c2c(=O)n1CC#Cc1ccc(Cl)cc1-c1ccnc2c(C(=O)O)csc12 [compound 1576]	–	–	0.0179 µM
CCc1cc(-c2cc(Cl)ccc2OCCn2c(C)nc3cc(C(F)(F)F)c(N4CCN(C)CC4)nc3c2=O)c2scc(C(=O)O)c2n1 [compound 1084]	< 0.05 µM	0.015 µM	–
C#Cc1c(C(=O)O)cccc1-c1cc(Cl)ccc1OCCn1c(CF)nc2cc(C#N)cc(C#N)c2c1=O [compound 232]	< 0.05 µM	0.0163 µM	–
Cc1cc(-c2cc(Cl)ccc2OCCn2c(C)nc3cnc(-c4cc(Cl)ccc4Cl)c(C#N)c3c2=O)c2scc(C(=O)O)c2n1 [compound 954]	< 0.05 µM	0.00829 µM	–
Cc1nc2cc(C(F)(F)F)c(C3CCNCC3)cc2c(=O)n1CCOc1ccc(Cl)cc1-c1ccnc2c(C(=O)O)csc12 [compound 880]	0.05 to 1 µM	0.0679 µM	–
Cc1nc2cc(CN(C)C)c(OC(F)(F)F)c(C#N)c2c(=O)n1CCOc1ccc(Cl)cc1-c1ccnc2c(C(=O)O)csc12 [compound 552]	0.05 to 1 µM	0.0509 µM	–
Cc1nc2cnc(N3CC[C@H]4CN(CC(F)F)CC[C@H]43)c(C#N)c2c(=O)n1CC#Cc1ccc(Cl)cc1-c1ccnc2c(C(=O)O)csc12 [compound 1556]	–	–	0.0499 µM
N#Cc1cc(F)cc2nc(C(F)F)n(CCOc3ccc(Cl)cc3-c3ccnc4c(C(=O)O)csc34)c(=O)c12 [compound 1938]	–	–	0.0463 µM

Structure (SMILES)	IC50 [1]	IC50 [2]	IC50 [3]
Cc1cc(-c2cc(Cl)ccc2OCCn2c(C)nc3cc(C(F)(F)F)ccc3c2=O)c2scc(C(=O)O)c2n1 [351b]	–	0.0936 µM	–
Cc1nc2cnc(N3CCN(C(C)(C)CC#N)CC3)c(C#N)c2c(=O)n1CC#Cc1ccc(Cl)cc1-c1ccnc2c(C(=O)O)csc12 [compound 1367]	–	–	0.0149 µM
Cc1cc(-c2cc(Cl)ccc2OCCn2c(C)nc3c(C)nc(-c4cccc(F)c4)c(C#N)c3c2=O)c2scc(C(=O)O)c2n1 [compound 475]	< 0.05 µM	0.017 µM	–
Cc1cc(-c2cc(Cl)ccc2OCCn2c(C)nc3c(C)nc(C(F)F)c(C#N)c3c2=O)c2scc(C(=O)O)c2n1 [compound 728]	< 0.05 µM	0.031 µM	–
Cc1cc(-c2cc(Cl)ccc2OCCn2c(C)nc3cc(-c4cccnc4)c(Cl)c(C#N)c3c2=O)c2scc(C(=O)O)c2n1 [compound 1098]	< 0.05 µM	0.0156 µM	–
Cc1cc(-c2cc(Cl)ccc2OCCn2c(C)nc3cnc(N4CCC(O)C4)c(C#N)c3c2=O)c2sc(C)c(C(=O)O)c2n1 (stereo not drawn) [compound 1236]	< 0.05 µM	–	0.0339 µM
Cc1nc2cnc(N3CCN(CC(C)(F)CF)CC3)c(C#N)c2c(=O)n1CCOc1ccc(Cl)cc1-c1ccnc2c(C(=O)O)csc12 (stereo not drawn) [compound 1164]	< 0.05 µM	0.0267 µM	–
Cc1cc(-c2cc(Cl)ccc2OCCn2c(C)nc3cc(C(F)(F)F)c(-c4ccncc4F)c(C#N)c3c2=O)c2scc(C(=O)O)c2n1 [compound 344]	< 0.05 µM	0.0321 µM	–
Cc1cc(-c2cc(Cl)ccc2OCCn2c(C)nc3cc(OC(F)F)cc(C#N)c3c2=O)c2scc(C(=O)O)c2n1 [compound 579]	< 0.05 µM	0.0302 µM	–
Cc1nc2c(F)cc(F)c(C#N)c2c(=O)n1CCOc1ccc(Cl)cc1-c1ccnc2c(C(=O)O)csc12 [compound 241]	< 0.05 µM	0.00487 µM	–
Cc1cc(-c2cc(Cl)ccc2OCCn2c(C)nc3ccc(CN4CCN(C)CC4)c(C#N)c3c2=O)c2scc(C(=O)O)c2n1 [compound 647]	< 0.05 µM	0.0198 µM	–
CON(C)c1ncc2nc(C)n(CCOc3ccc(Cl)cc3-c3cc(C)nc4c(C(=O)O)csc34)c(=O)c2c1C#N [compound 976]	< 0.05 µM	0.019 µM	–
Cc1nc2cc(C(F)(F)F)cc(C#N)c2c(=O)n1CCOc1ccc(Cl)cc1-c1ccnc(C(=O)O)c1 [compound 60]	< 0.05 µM	–	–
Cc1nc2cc(C(F)(F)F)cc(C#N)c2c(=O)n1CCOc1ccc(Cl)cc1-c1cc(C#N)nc2c(C(=O)O)csc12 [compound 446]	0.05 to 1 µM	–	–
Cc1nc2cnc(N3CCN(C(C)CF)CC3)c(C#N)c2c(=O)n1CCOc1ccc(Cl)cc1-c1ccnc2c(C(=O)O)csc12 (stereo not drawn) [compound 1424]	–	–	0.0292 µM
Cc1cnc(-c2nc3c(=O)n(CCOc4ccc(Cl)cc4-c4cc(C)nc5c(C(=O)O)csc45)c(C)nc3cc2C(F)(F)F)c(C)n1 [compound 1023]	< 0.05 µM	0.0498 µM	–
Cc1cc(-c2cc(Cl)ccc2OCCn2c(C)nc3cc(C(F)(F)F)c(-c4ccn(C)n4)c(C#N)c3c2=O)c2scc(C(=O)O)c2n1 [compound 779]	< 0.05 µM	0.00954 µM	–
Cc1cc(-c2cc(Cl)ccc2OCCn2c(C)nc3cc(Cl)c(-c4ccc(N(C)C)nc4)c(C#N)c3c2=O)c2scc(C(=O)O)c2n1 [compound 397]	< 0.05 µM	0.0105 µM	–
Cc1nc2cnc(N(C)[C@H]3CC[C@H](N4CC(F)(F)C4)CC3)c(C#N)c2c(=O)n1CC#Cc1ccc(Cl)cc1-c1ccnc2c(C(=O)O)csc12 [compound 1099]	< 0.05 µM	–	–
Cc1nc2cnc(N3CCC(N(CC(F)F)C4COC4)CC3)c(C#N)c2c(=O)n1CC#Cc1ccc(Cl)cc1-c1ccnc2c(C(=O)O)csc12 [compound 1553]	–	–	0.0129 µM
Cc1nc2cc(C(F)(F)F)cc(C#N)c2c(=O)n1CCOc1ccc(Cl)cc1-c1cccc(C(=O)O)c1 [compound 51]	< 0.05 µM	0.0213 µM	–
Cc1cc(-c2cc(Cl)ccc2OCCn2c(C)nc3cc(C(F)(F)F)c(N4CCN(C)CC4)c(C#N)c3c2=O)c2sccc2n1 [compound 836]	< 0.05 µM	0.00233 µM	–
Cc1nc2cnc(N(C)C3CCN(CC(F)F)CC3)c(C#N)c2c(=O)n1CC#Cc1ccc(Cl)cc1-c1ccnc2c(C(=O)NO)csc12 [compound 1560]	–	–	0.00631 µM
Cc1nc2ccc(CN(C)C)c(C#N)c2c(=O)n1CCOc1ccc(Cl)cc1-c1ccnc2c(C(=O)O)csc12 [compound 1936]	–	–	0.0374 µM
CCN(c1ncc2nc(C)n(CC#Cc3ccc(Cl)cc3-c3ccnc4c(C(=O)O)csc34)c(=O)c2c1C#N)C1CCN(CC(F)F)CC1 [compound 1535]	–	–	0.0174 µM
Cc1cc(-c2cc(Cl)ccc2OCCn2c(C)nc3c(C)nc(-c4cccc(Cl)c4)c(C#N)c3c2=O)c2scc(C(=O)O)c2n1 [compound 481]	< 0.05 µM	0.0105 µM	–
